Test results published in patent US7632845B2, “Phenyl quinolines and their use as estrogenic agents” (Wyeth, priority 2003, dated 2009).

How the values were obtained:
ERα = target: T1, ERα (Homo sapiens, UniProt P03372); test: Competition with [3H]-17β-estradiol for ERα ligand binding domain; settings: crude E. coli lysate expressing human ERα LBD (D, E, & F); 2 nM [3H]-17β-estradiol; 5-15 hours at room temperature
T1 construct: made in house; host or cells: E. coli
T1 sequence (P03372 311-547 limits assumed): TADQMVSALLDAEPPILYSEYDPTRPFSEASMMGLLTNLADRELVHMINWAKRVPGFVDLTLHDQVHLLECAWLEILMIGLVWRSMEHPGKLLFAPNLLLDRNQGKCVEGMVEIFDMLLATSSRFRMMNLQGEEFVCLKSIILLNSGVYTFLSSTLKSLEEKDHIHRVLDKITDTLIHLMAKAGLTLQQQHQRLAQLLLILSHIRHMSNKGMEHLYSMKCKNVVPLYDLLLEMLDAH
Method: (§1) Representative examples of the invention were evaluated for their ability to compete with 17β-estradiol for both ERα and ERβ. This test procedure provides the methodology for one to determine whether a particular compound binds to the estrogen receptor (and is therefore “estrogenic”) and whether there is selectivity for ERα or ERβ. […] 17β-estradiol is included as a standard reference for compalison. The procedure used is briefly described below. A crude lysate of E. coli expressing the estrogen receptor ligand binding domains (D, E, & F) of human ERα or ERβ was prepared. Both receptors and compounds were diluted in 1× Dulbecco's PBS (DPBS) supplemented with 1 mM EDTA. Using a high binding masked microtiter plate, 100 uL of receptor (1 uG/well) was combined with 2 nM [^3H]-17β-estradiol and various concentrations of compound. After between 5 and 15 hours at room temperature, the plates were washed with DPBS/1 mM EDTA and bound radioactivity determined by liquid scintillation counting.

ERβ = target: T2, ERβ (Homo sapiens, UniProt Q92731); test: Competition with [3H]-17β-estradiol for ERβ ligand binding domain; settings: for IC50: crude E. coli lysate expressing human ERβ LBD (D, E, & F), 2 nM [3H]-17β-estradiol, 5-15 hours at room temperature; for α/β: receptor selectivity, ratio ERα IC50 / ERβ IC50
T2 construct: made in house; host or cells: E. coli
T2 sequence (Q92731 264-498 limits assumed): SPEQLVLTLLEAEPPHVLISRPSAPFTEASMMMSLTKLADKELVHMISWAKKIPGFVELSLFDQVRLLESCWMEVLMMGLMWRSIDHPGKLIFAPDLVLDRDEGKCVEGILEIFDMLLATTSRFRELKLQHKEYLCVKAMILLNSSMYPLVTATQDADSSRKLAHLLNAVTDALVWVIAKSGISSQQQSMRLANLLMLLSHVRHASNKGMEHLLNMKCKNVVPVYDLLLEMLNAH
Method: as §1

Compound | IC50 (ERα) [nM] | IC50 (ERβ) [nM] | α/β (ERβ)
Oc1ccc(-c2cc(Cl)c3cc(O)ccc3n2)cc1 [Cpd 5a, 4-Chloro-2-(4-hydroxyphenyl)quinolin-6-ol] | 213 | 4.6 | 46
Oc1ccc2nc(-c3ccc(O)c(F)c3)cc(-c3ccc(C(F)(F)F)cc3)c2c1 [Cpd 25, 2-(3-Fluoro-4-hydroxyphenyl)-4-(4-trifluoromethylphenyl)quinolin-6-ol] | > 5000 | > 5000 | 
Oc1ccc2nc(-c3cc(F)c(O)c(F)c3)cc(Br)c2c1 [Cpd 6c, 4-Bromo-2-(3,5-difluoro-4-hydroxyphenyl)quinolin-6-ol] | 976 | 42 | 23
N#Cc1ccc(-c2cc(-c3ccc(O)c(F)c3)nc3ccc(O)cc23)cc1 [Cpd 24, 4-(4-Cyanophenyl)-2-(3-fluoro-4-hydroxyphenyl)quinolin-6-ol] | 1810 | 53 | 34
N#Cc1cc(O)cc2c(Br)cc(-c3ccc(O)c(F)c3)nc12 [Cpd 57, 4-Bromo-8-cyano-2-(3-fluoro-4-hydroxyphenyl)quinolin-6-ol] | 86 | 1.4 | 61
N#Cc1cc(O)cc2c(Cl)cc(-c3ccc(O)c(F)c3)nc12 [Cpd 56, 4-Chloro-8-cyano-2-(3-fluoro-4-hydroxyphenyl)quinolin-6-ol] | 116 | 1.1 | 105
C#Cc1cc(-c2ccc(O)c(F)c2)nc2c(C#N)cc(O)cc12 [Cpd 58, 8-Cyano-4-ethynyl-2-(3-fluoro-4-hydroxyphenyl)quinolin-6-ol] | 87 | 1.3 | 67
Oc1ccc2nc(-c3ccc(O)c(F)c3)cc(-c3cncnc3)c2c1 [Cpd 28, 2-(3-Fluoro-4-hydroxyphenyl)-4-(5-pyrimidinyl)quinolin-6-ol] | 3310 | 968 | 3
CCc1cc(-c2ccc(O)cc2)nc2ccc(O)cc12 [Cpd 12a, 4-Ethyl-2-(4-hydroxyphenyl)quinolin-6-ol] | 837 | 61 | 14
CC(=O)c1cc(-c2ccc(O)cc2)nc2ccc(O)cc12 [Cpd 16a, 4-Acetyl-2-(4-hydroxyphenyl)quinolin-6-ol] | 2940 | 211 | 14
Oc1ccc(-c2ccc3c(Cl)c(O)ccc3n2)cc1 [Cpd 31, 5-Chloro-2-(4-hydroxyphenyl)quinolin-6-ol] | 840 | 38 | 22
Oc1ccc2nc(-c3ccc(O)c(F)c3)cc(-c3nccs3)c2c1 [Cpd 18, 2-(3-Fluoro-4-hydroxyphenyl)-4-thiazol-2-yl-quinolin-6-ol] | 2160 | 208 | 10
Oc1ccc(-c2ccc3c(Br)c(O)ccc3n2)cc1 [Cpd 32, 5-Bromo-2-(4-hydroxyphenyl)quinolin-6-ol] | 1190 | 90 | 13
C[Si](C)(C)C#Cc1cc(-c2ccc(O)c(F)c2)nc2ccc(O)cc12 [Cpd 13b, 2-(3-Fluoro-4-hydroxyphenyl)-4-[(trimethylsilyl)ethynyl]quinolin-6-ol] | 1690 | 153 | 11
N#Cc1ccc(-c2cc(O)cc3c(Cl)cc(-c4ccc(O)c(F)c4)nc23)cc1 [Cpd 61, 4-Chloro-8-(4-cyanophenyl)-2-(3-fluoro-4-hydroxyphenyl)quinolin-6-ol] | 522 | 13 | 40
C#Cc1cc(-c2ccc(O)cc2)nc2ccc(O)cc12 [Cpd 14a, 4-Ethynyl-2-(4-hydroxyphenyl)quinolin-6-ol] | 1500 | 76 | 20
Cc1ccc(-c2cc(-c3ccc(O)c(F)c3)nc3ccc(O)cc23)cc1 [Cpd 21, 2-(3-Fluoro-4-hydroxyphenyl)-4-(4-methylphenyl)quinolin-6-ol] | 2920 | 112 | 26
CC(O)c1cc(-c2ccc(O)cc2)nc2ccc(O)cc12 (centres unmarked) [Cpd 17a, 4-(1-Hydroxyethyl)-2-(4-hydroxyphenyl)quinolin-6-ol] | > 5000 | > 5000 | 
Oc1ccc2nc(-c3ccc(O)c(F)c3)cc(C#Cc3ccccc3)c2c1 [Cpd 15, 2-(3-Fluoro-4-hydroxyphenyl)-4-(phenylethynyl)quinolin-6-ol] | 12000 | 195 | 62

Compound | IC50 (ERα) [nM] | IC50 (ERβ) [nM] | α/β (ERβ)
CC(=O)c1cc(-c2ccc(O)c(F)c2)nc2ccc(O)cc12 [Cpd 16b, 4-Acetyl-2-(3-fluoro-4-hydroxyphenyl)quinolin-6-ol] | 3370 |  | 
Oc1ccc(-c2nc3ccc(O)cc3c(Br)c2Cl)cc1 [Cpd 35a, 4-Bromo-3-chloro-2-(4-hydroxyphenyl)quinolin-6-ol] | 78 | 1.25 | 62
CCCCC#Cc1cc(-c2ccc(O)c(F)c2)nc2c(Cl)cc(O)cc12 [Cpd 49, 8-Chloro-2-(3-fluoro-4-hydroxyphenyl)-4-hex-1-ynylquinolin-6-ol] | 304 | 21 | 14
N#Cc1cc(-c2ccc(O)c(F)c2)nc2c(Cl)cc(O)cc12 [Cpd 47, 8-Chloro-4-cyano-2-(3-fluoro-4-hydroxyphenyl)quinolin-6-ol] | 192 | 1.7 | 113
Oc1cc(Cl)c2nc(-c3ccc(O)c(F)c3)cc(Br)c2c1 [Cpd 45a, 4-Bromo-8-chloro-2-(3-fluoro-4-hydroxyphenyl)quinolin-6-ol] | 18.7 | 0.35 | 53
Oc1ccc2nc(-c3ccc(O)c(F)c3)cc(-c3ccsc3)c2c1 [Cpd 26, 2-(3-Fluoro-4-hydroxyphenyl)-4-thiophen-3-yl-quinolin-6-ol] | 868 | 75 | 12
N#Cc1c(Cl)c(-c2ccc(O)c(F)c2)nc2ccc(O)cc12 [Cpd 37, 3-Chloro-4-cyano-2-(3-fluoro-4-hydroxyphenyl)quinolin-6-ol] | 318 | 26 | 12
Oc1ccc(-c2nc3ccc(O)cc3c(-c3ccc(F)cc3)c2Cl)cc1 [Cpd 36, 3-Chloro-4-(4-fluorophenyl)-2-(4-hydroxyphenyl)quinolin-6-ol] | 340 | 244 | 1.4
C#Cc1cc(-c2ccc(O)c(F)c2)nc2c(Cl)cc(O)cc12 [Cpd 48, 8-Chloro-4-ethynyl-2-(3-fluoro-4-hydroxyphenyl)quinolin-6-ol] | 37 | 0.75 | 50
Oc1ccc2nc(-c3ccc(O)c(F)c3)cc(-c3ccc(F)cc3)c2c1 [Cpd 22, 2-(3-Fluoro-4-hydroxyphenyl)-4-(4-fluorophenyl)quinolin-6-ol] | 591 | 33 | 18
Oc1ccc2nc(-c3ccc(O)c(F)c3)cc(-c3ccc(Cl)cc3)c2c1 [Cpd 23, 4-(4-Chlorophenyl)-2-(3-fluoro-4-hydroxyphenyl)quinolin-6-ol] | > 1000 | 146 | >6
C=Cc1cc(-c2ccc(O)c(F)c2)nc2ccc(O)cc12 [Cpd 11b, 2-(3-Fluoro-4-hydroxyphenyl)-4-vinylquinolin-6-ol] | 458 | 37 | 12
Oc1ccc2nc(-c3ccc(O)c(F)c3)c(Cl)c(Br)c2c1 [Cpd 35b, 4-Bromo-3-chloro-2-(3-fluoro-4-hydroxyphenyl)quinolin-6-ol] | 90 | 3.7 | 24
Oc1cc(Br)c2nc(-c3ccc(O)c(F)c3)cc(Cl)c2c1 [Cpd 44, 8-Bromo-4-chloro-2-(3-fluoro-4-hydroxyphenyl)-quinolin-6-ol] | 31 | 0.54 | 57
Oc1ccc2nc(-c3ccc(O)c(F)c3)cc(Cl)c2c1 [Cpd 5b, 4-Chloro-2-(3-fluoro-4-hydroxyphenyl)quinolin-6-ol] | 246 |  | 
Oc1ccc2nc(-c3ccc(O)c(F)c3)cc(-c3ccccc3)c2c1 [Cpd 20, 2-(3-Fluoro-4-hydroxyphenyl)-4-phenylquinolin-6-ol] | 1380 | 128 | 11
Oc1ccc2nc(-c3ccc(O)c(F)c3)cc(Br)c2c1 [Cpd 6b, 4-Bromo-2-(3-fluoro-4-hydroxyphenyl)quinolin-6-ol] | 283 | 3.4 | 
CCc1cc(-c2ccc(O)c(F)c2)nc2ccc(O)cc12 [Cpd 12b, 4-Ethyl-2-(3-fluoro-4-hydroxyphenyl)quinolin-6-ol] | 1030 | 40 | 26
Oc1ccc2nc(-c3ccc(O)c(F)c3)cc(-c3ccncc3)c2c1 [Cpd 27, 2-(3-Fluoro-4-hydroxyphenyl)-4-(4-pyridinyl)quinolin-6-ol] | > 1000 | 78 | >12
